Test results: patent US20120101046A1, “PROPHYLACTIC OR THERAPEUTIC AGENT FOR RETINAL DISEASE AND METHOD FOR PROPHYLAXIS OR THERAPY OF RETINAL DISEASE USING JNK (C-JUN AMINO-TERMINAL KINASE) - INHIBITORY PEPTIDE, AND USE OF THE PEPTIDE” (priority 2009, published 2012)
Read-outs that look alike come from different tables or passages of the source. Non-standard residues stand in square brackets, D forms with d. Residues, ends and D or L forms follow the SMILES beside them.

How the values were obtained:
[1] = tested on: spermidine-induced retinal degeneration model; assay: Spermidine-induced retinal degeneration model, ERG (a-wave) measurement; assay type: in vivo; settings: rats, intravitreal
Excerpt: Therefore, a spermidine-induced retinal degeneration model is used as a model for evaluating therapeutic agents for diseases involving retinal pigment epithelial damage, such as atrophic AMD (Invest. Ophthalmol. Vis. Sci., 48 (1), 455-463 (2007) (NPL 1); Invest. Ophthalmol. Vis. Sci. 51, ARVO E-abstract 3644 (2010); etc.). Thus, an effect of the JNK-inhibitory peptide of the present invention on photoreceptor cell damage caused by retinal pigment epithelial damage was investigated using the aforementioned model, and then compared with that obtained by the representative JNK-inhibitor, SP600125.
To a control group, 10 μL of Dulbecco PBS was administered. To a vehicle-administered group, 10 μL of a 2 mM solution of spermidine dissolved in Dulbecco PBS was administered. To a peptide A-administered group, a 4 mM solution of spermidine dissolved in Dulbecco PBS was mixed with 0.6 mg/mL peptide A dissolved in Dulbecco PBS to give a 1:1 mixture, and 10 μL of the solution was administered into the vitreous cavity. To an SP600125-administered group, spermidine was dissolved in a 0.3 mg/mL solution of SP600125 dissolved in Dulbecco PBS to give a concentration of 2 mM, and 10 μL of the solution was administered into the vitreous cavity. As spermidine, “Spermidine, Trihydrochloride” (Cat. No. 56766), purchased from Calbiochem, was used. […] As SP600125, “SP600125” (Cat. No. S5567-50 MG), purchased from Sigma Aldrich, was used.
Suppression ratios against reduction in ERG amplitude were subsequently calculated using an equation 1 shown below.
Suppression ratio against reduction in ERG amplitude (%)=((Ex−Ev)/(Ec−Ev))×100, [Equation 1]

[2] = tested on: laser-induced rat choroidal neovascularization model; assay: Laser-induced rat choroidal neovascularization model, fluorescent fundus angiography; assay type: in vivo; settings: rats, intravitreal, 3 μg/eye, day 7 after photocoagulation
Description: As a pharmacological test model for investigating an inhibitory effect on choroidal neovascularization, a laser-induced choroidal neovascularization model is widely used (Folia Ophthalmologica Japonica, 45, 853-856 (1994)).
Photocoagulation was subsequently performed using a krypton laser photocoagulator (manufactured by NIDEK, a multicolor laser photocoagulator MC-7000). With focusing laser beam on the deep retinal layers, photocoagulation was conducted in the posterior portion of the ocular fundus at 8 spots per eye in a dispersed manner, while avoiding thick retinal blood vessels. After photocoagulation, fundus photography was performed to identify the laser-irradiated sites.
To a vehicle-administered group, 5 μL of physiological saline was administered.
Subsequently, 0.1 mL of a 10% fluorescein sodium solution was injected via the tail vein, and fluorescent fundus angiography (manufactured by Kowa, Fundus Camera Kowa PROIII) was performed. In fluorescent fundus angiography, spots at which fluorescence exposure was not observed was determined as negative (without neovascularization), and spots at which fluorescence exposure was observed were determined as positive (with neovascularization). Moreover, when there were two photocoagulation sites at which slight fluorescence exposure was observed, these photocoagulation sites were determined as positive (with neovascularization). […]

[3] = tested on: tunicamycin-induced rat photoreceptor cell damage model; settings: rats, intravitreal, 2.7 μg/eye, 7 days after tunicamycin administration
Description: Such a model was thus used to evaluate the usefulness of the JNK-inhibitory peptide of the present invention against photoreceptor cell damage.
General anesthesia was induced in rats by intramuscular administration of 1 mL/kg of a mixture (7:1) of a 5% (W/V) ketamine hydrochloride injection solution and a 2% xylazine hydrochloride injection solution. A 0.5% (W/V) tropicamide-0.5% phenylephrine hydrochloride ophthalmic solution was instilled into their eyes to cause dilation of the pupils. Under conditions that ocular fundus is visualized, a microsyringe (25 μL volume, Hamilton) fitted with a 33 G needle was used and inserted into the vitreous cavity. To a control group, 54 of a mixture (1:9) of dimethyl sulfoxide and physiological saline was administered. […]
After 7 days from the administration of tunicamycin, general anesthesia was induced in the rats under dark adaptation by intramuscular administration of 1 mL/kg of a mixture (7:1) of a 5% (W/V) ketamine hydrochloride injection solution and a 2% xylazine hydrochloride injection solution. […] Then, using an electroretinogram (ERG) measurement apparatus (manufactured by Tomey Corporation, portable ERG&VEP LE-3000), ERGs (a-wave) were measured. Suppression ratio against reduction in ERG amplitude was subsequently calculated using an equation 4 shown below. […]

[4] = 3 μg/eye, 13 days after spermidine administration

| aggravated the reduction in ERG amplitude [1, 4] | SMILES | damage suppression effect in the spermidine model [1] | Suppression ratio against Reduction in ERG (a-Wave) amplitude (%) [1, 4] [%] | Suppression ratio against Reduction in ERG (a-Wave) amplitude (%) ([1]; 3 μg/eye, 13 days after spermidine administration, listed as peptide A) | Suppression Ratio (%) of Choroidal Neovascularization Development [2] [%] | Suppression Ratio (%) of Choroidal Neovascularization Development ([2]; listed as peptide A) | Suppression ratio against Reduction in ERG (a-Wave) amplitude (%) [3] [%] | Suppression ratio against Reduction in ERG (a-Wave) amplitude (%) ([3]; listed as peptide A) |
| --- | --- | --- | --- | --- | --- | --- | --- | --- |
| approximately 18% | Oc1c2ccccc2c2c3c(cccc13)N=N2 [SP600125] | no damage suppression effect | −17.6 | – | – | – | – | – |
| – | CC(C)C[C@@H](NC(=O)[C@@H](CC(N)=O)NC(=O)[C@@H](CC(C)C)NC(=O)[C@H](NC(=O)[C@H](NC(=O)[C@H]1CCCN1C(=O)[C@@H](CCCNC(=N)N)NC(=O)[C@@H](CCCCN)NC(=O)[C@H]1CCCN1C(=O)[C@@H](CCCNC(=N)N)NC(=O)[C@H]1CCCN1C(=O)[C@H]1CCCN1C(=O)[C@@H](CCCNC(=N)N)NC(=O)[C@@H](CCCNC(=N)N)NC(=O)[C@@H](CCCNC(=N)N)NC(=O)[C@@H](CCC(N)=O)NC(=O)[C@@H](CCCNC(=N)N)NC(=O)[C@@H](CCCNC(=N)N)NC(=O)[C@@H](CCCCN)NC(=O)[C@@H](CCCCN)NC(=O)[C@@H](CCCNC(=N)N)NC(=O)CN)[C@H](C)O)[C@H](C)O)C(=O)N[C@H](Cc1ccccc1)C(=O)N1CCC[C@@H]1C(=O)N[C@H](CCC(N)=O)C(=O)N[C@@H](C(=O)N1CCC[C@@H]1C(=O)N[C@H](CCCNC(=N)N)C(=O)N[C@H](CO)C(=O)N[C@H](CCC(N)=O)C(=O)N[C@H](CC(=O)O)C(=O)O)C(C)C [Peptide A] (H-G[dR][dK][dK][dR][dR][dQ][dR][dR][dR][dP][dP][dR][dP][dK][dR][dP][dT][dT][dL][dN][dL][dF][dP][dQ][dV][dP][dR][dS][dQ][dD]-OH) | – | 72.7 | approximately 73% | 14.3 | approximately 14% | 50.0 | approximately 50% |
